Source: patent publication US7776826B2, “Method for fostering bone formation and preservation” (Unigene Laboratories, Inc., priority 2004, dated 2010)

Assays:
[1] = test system: Male Sprague-Dawley rats; test: pQCT analysis of left and right femoral shafts at day 21, Groups K-R; assay type: in vivo, rat
Source text: (§1) FIG. 10 (a-b) presents high resolution radiograms of the left and right femurs, respectively, from an additional series of experiments on additional groups of male Sprague-Dawley rats (6 rats per group) aged 9 weeks which were sacrificed and tested after 21 days (3 weeks). The various groups were subjected to the following treatment modalities: Group K—control day 0; Group L—control day 21; Group M—bone marrow ablation (bmx) day 0; Group N—sham day 21; Group O— bmx+phosphate buffer saline (PBS) daily for 21 days; Group P—bmx+PTH[1-34]-NH2 daily for 21 days; Group Q—bmx+ parathyroid hormone related peptide (PTHRP) daily for 21 days; and Group R—bmx+rat α-calcitonin gene related peptide (CGRP) daily for 21 days;
FIG. 11 (a-d) are graphical representations of the results of Peripheral Quantitative Computerized Tomography (PQCT) analyses of, respectively, the left (ablated) and right (non-ablated) femoral shafts of the rats from Groups K-R (see description of FIG. 10). FIGS. 11(a) and 11(b) illustrate the trabecular bone density observed in, respectively the left and right femoral shafts at day 21; whereas, FIGS. 11(c) and 11(d) illustrate the total bone density of, respectively, the left and right femoral shafts at the same interval. The meanings of the abbreviations used in FIGS. 11(a-d) are identical to those described above with regard to FIG. 10. […] [+=p value<0.01 vs. sham; *=p value<0.01 vs. bmx+PTH; **=p value<0.01 vs. bmx+PTH; and #=p value<0.05 vs. PBS];
An additional series of experiments was thereafter carried out with additional groups of rats (K-R) in order to (1) measure the effect of additional bone anabolic agents, i.e., other than parathyroid hormone (PTH[1-34]-NH2) and calcitonin, as well as to compare the effect(s) achieved with such parathyroid hormone with those obtained with the use of alternate anabolic agents, including parathyroid hormone related peptide (PTHrP) and calcitonin gene related peptide (CGRP). As in the case of the analyses discussed above with regard to FIGS. 3-9, in the animals tested only the left femur underwent the bone marrow ablation (bmx) procedure, i.e., there was no ablation of the right femur. Thus, as noted above, any views of the right femur in the figures described below indicating bone marrow ablation (bmx) as a treatment modality should be taken to mean that such treatment was applied to the corresponding left femur. Further, as was additionally the case above, the samples described below with regard to FIGS. 10-13 were taken from the femur shafts, rather than the corresponding distal epiphysis as in the case of FIGS. 1 and 2. The figures discussed below depict the results of end-point studies wherein the measurements were taken only at the 21 day end-point.
FIG. 11 (a-d) graphically illustrates, by means of a bar graph, the improvements in trabecular bone density and, to some extent, total bone density, in the left femoral shaft of rats subjected to the treatment modalities described above with regard to FIG. 10 (a-b); that is, control day 0; bmx day 0; control day 21; sham day 21; bmx+PBS on day 21; bmx+PTH on day 21; bmx+PTHrP on day 21; and bmx+CGRP on day 21. Again, this is attributable that (only) the left femur was subjected to the bmx treatment, and thus was the only femur wherein the effects of such bmx treatment overlapped with that of the systemic treatment with the bone anabolic agent. […] In contrast to the values obtained for the left femur, no significant amount of bone was formed in the right femur, notwithstanding whether it is trabecular bone density or total bone density which is being measured. This lack of new bone is, furthermore, attributable to the fact that the right femur had not been subjected to the bone marrow ablation (bmx) treatment.

[2] = test system: Male Sprague-Dawley rats; test: High resolution radiograms of left and right femurs, Groups K-R; assay type: in vivo, rat; conditions: left femur with bmx, agent daily for 21 days
Source text: as §1
FIG. 10 (a-b) presents a set of high resolution radiograms of the entire left and right femurs of additional (to those described above) groups of rats, injected daily for a designated term with one or more of the following agents: phosphate buffer saline (PBS); parathyroid hormone (PTH[1-34]-NH2); parathyroid hormone related peptide (PTHrP); and calcitonin gene related peptide (CGRP). The rats chosen for test subjects were subjected to the following treatment modalities (as indicated in the lower left corner of each of the radiograms): control day 0; control day 21; bone marrow ablation (bmx) day 0; sham day 21; bmx followed by injection of PBS buffer daily for 21 days; bmx followed by injection of PTH daily for 21 days; bmx followed by injection of PTHrP daily for 21 days; and bmx followed by injection of CGRP daily for 21 days.
As shown by FIG. 10(a), the best results, i.e., the greatest bone density, was obtained in the left femur wherein the effect of the bone marrow ablation overlapped with that attributable to the administration of the various anabolic agents. As in the case of FIG. 3, the lighter, i.e, more radio-opaque, areas indicate the locations of the greatest additional bone growth.

[3] = ablated femur, day 21, agent daily for 21 days, Groups K-R
[4] = non-ablated femur, day 21, agent daily for 21 days, Groups K-R

Substance: PTH[1-34]-NH2
- Left femoral shaft Total density mean [1, 3]: 1100.2 mg/mL
- Left femoral shaft Trabecular density mean [1, 3]: 540.7 mg/mL
- trabecular bone density of left femoral shaft, in words ([1]; bmx, day 21): significantly improved
- Right femoral shaft Total density mean [1, 4]: 899.5 mg/mL
- Right femoral shaft Trabecular density mean [1, 4]: 128.3 mg/mL
- bone density on radiograms, in words [2]: best results
